{"source": "patent US9969758B2", "about": "“Antimicrobial compounds” (BIOMERIEUX, priority 2014, dated 2018)", "test_in_all_cases": "MIC by agar dilution", "key": {"[1]": {"test_system": "E. coli (53)", "type": "cell-based, Escherichia coli", "procedure,_shortened": "(§1)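 Agar dilution on peptone-free medium with 2% lysed horse blood, NAD and hemin (25.0 μg/mL each), compounds 0.0031 to 8.0 μg/mL; inoculum 10 000 CFU/spot, 22 h at 37° C. Fosfomycin tested in IsoSensitest medium plus 25.0 μg/mL glucose-6-phosphate; at least two replicates.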"}, "[2]": {"test_system": "K. pneumoniae (87)", "type": "cell-based, Klebsiella pneumoniae", "settings": "Klebsiella pneumoniae", "procedure,_shortened": "as §1"}, "[3]": {"test_system": "E. cloacae (27)", "type": "cell-based, Enterobacter cloacae", "procedure,_shortened": "as §1"}, "[4]": {"test_system": "AmpC (22)", "type": "cell-based, Enterobacteriaceae", "procedure,_shortened": "as §1"}, "[5]": {"test_system": "All S. aureus (50)", "type": "cell-based, Staphylococcus aureus", "settings": "All S. aureus (50)", "procedure,_shortened": "(§2)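 Agar dilution in peptone-free medium with 2% saponin-lysed horse blood, 25.0 μg/mL NAD and 25.0 μg/mL hemin; compounds at 0.016–32 μg/mL for gram-positives. Inoculum 10 000 CFU/spot; plates incubated 22 hours at 37° C, at least two independent replicates.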"}, "[6]": {"test_system": "All Enterococci (50)", "type": "cell-based", "settings": "All Enterococci (50)", "procedure,_shortened": "as §2"}, "[7]": {"test_system": "methicillin-resistant Staphylococcus aureus", "type": "cell-based", "procedure,_shortened": "as §2"}, "[8]": {"test_system": "E. faecalis (11)", "type": "cell-based, Enterococcus faecalis", "settings": "Enterococcus faecalis, E. faecalis (11)", "procedure,_shortened": "as §2"}, "[9]": {"test_system": "E. faecium (34)", "type": "cell-based, Enterococcus faecium", "procedure,_shortened": "as §2"}, "[10]": {"test_system": "Citrobacter (n=9)", "type": "cell-based", "procedure,_shortened": "as §1"}, "[11]": {"test_system": "Enterobacteriaceae (197)", "type": "cell-based", "settings": "Enterobacteriaceae (197)", "procedure,_shortened": "as §1"}, "[12]": {"test_system": "Enterobacteriaceae with a broad-spectrum β-lactamase", "type": "cell-based", "procedure,_shortened": "as §1"}, "[13]": {"test_system": "carbapenemase-producing Enterobacteriaceae", "type": "cell-based", "procedure,_shortened": "as §1"}, "[14]": {"test_system": "E. aerogenes (n=1)", "type": "cell-based, Enterobacter aerogenes", "source_text": "(§3) Bacterial isolates. […] These included Citrobacter freundii (n=5), other species of Citrobacter (n=4), Enterobacter aerogenes (n=1), Enterobacter cloacae (n=27), Escherichia coli (n=53), Klebsiella oxytoca (n=5), Klebsiella pneumoniae (n=87), Kluyvera spp (n=1), Proteus mirabilis (n=8), Providencia rettgeri (n=2), Salmonella spp (n=3), and Serratia marcescens (n=1). Among these 197 isolates, there were 128 (65%) carbapenemase producers, including; 87 with NDM-1, 9 with IMP, 11 with KPC, 14 with OXA-48 and 7 with VIM. The majority of the carbapenemase producers jointly produced broad-spectrum β-lactamases (BSBL) or cephalosporinases (AmpC β-lactamases), but the latter are not documented for the sake of clarity.\n(§4) Determining the minimum inhibitory concentrations (MIC). All the MICs were determined using an agar dilution method. This required use of a medium without a defined antagonist (peptone-free), prepared as described previously with the inclusion of 2% horse blood lysed with saponin, 25.0 μg/mL of NAD and 25.0 μg/mL of hemin [17]. […] The MICs of fosfomycin were determined by the same method, except that the IsoSensitest medium (Oxoid, Basingstoke, United Kingdom) was used, plus 25.0 μg/mL of glucose-6-phosphate (Sigma, Poole, United Kingdom) and an extended range of fosfomycin concentrations. […]"}, "[15]": {"test_system": "Kluyvera sp. (n=1)", "type": "cell-based, Kluyvera spp", "source_text": "as §3, §4"}, "[16]": {"test_system": "S. marcescens (n=1)", "type": "cell-based, Serratia marcescens", "source_text": "as §3, §4"}, "[17]": {"test_system": "K. oxytoca", "type": "cell-based, Klebsiella oxytoca", "settings": "Klebsiella oxytoca; one of the five isolates of K. oxytoca", "source_text": "as §3, §4"}, "[18]": {"test_system": "Salmonella isolates", "type": "cell-based, Salmonella spp", "settings": "three Salmonella isolates; read-out: MICs", "source_text": "as §3, §4"}, "[19]": {"settings": "read-out: Modal MIC (most frequent MIC)"}}}
{"smiles": "C[C@H](N)C(=O)N[C@@H](C)P(=O)(O)O", "note": "[Alafosfalin, L-alanyl-L-1-aminoethylphosphonic acid]", "values": [{"measurement": "concentration by which growth of all the isolates was inhibited", "setting": "[1]; 53 isolates of E. coli", "value": 2, "unit": "µg/mL"}, {"measurement": "activity relative to that of fosfomycin", "setting": "[1]; E. coli", "value": "approximately four"}, {"measurement": "MIC Range", "setting": "[1]; E. coli (53)", "value": "≤0.031-2 ^ μg/mL"}, {"measurement": "MIC50", "setting": "[1]; Escherichia coli, E. coli (53), read-out: MIC50", "value": 0.125, "unit": "µg/mL"}, {"measurement": "MIC90", "setting": "[1]; Escherichia coli, E. coli (53), read-out: MIC90", "value": 0.25, "unit": "µg/mL"}, {"measurement": "MIC", "setting": "[1]; Escherichia coli, E. coli (53), read-out: Modal MIC (most frequent MIC)", "value": 0.063, "unit": "µg/mL"}, {"measurement": "MIC50", "setting": "[2]; K. pneumoniae (87), read-out: MIC50", "value": 2, "unit": "µg/mL"}, {"measurement": "MIC90", "setting": "[2]; K. pneumoniae (87), read-out: MIC90", "value": "> 8", "unit": "µg/mL"}, {"measurement": "MIC", "setting": "[2]; K. pneumoniae (87), read-out: Modal MIC (most frequent MIC)", "value": 2, "unit": "µg/mL"}, {"measurement": "percent of isolates inhibited at 8 µg/mL", "setting": "[2]; K. pneumoniae isolates, at 8 μg/mL, read-out: isolates inhibited", "value": 87, "unit": "%"}, {"measurement": "activity relative to fosfomycin", "setting": "[3]; E. cloacae", "value": "~32", "unit": "times"}, {"measurement": "MIC Range", "setting": "[3]; E. cloacae (27)", "value": "0.125 to 4", "unit": "µg/mL"}, {"measurement": "concentration by which all the isolates were inhibited", "setting": "[3]; E. cloacae isolates (n=27)", "value": 4, "unit": "µg/mL"}, {"measurement": "MIC50", "setting": "[3]; Enterobacter cloacae, E. cloacae (27), read-out: MIC50", "value": 1, "unit": "µg/mL"}, {"measurement": "MIC90", "setting": "[3]; Enterobacter cloacae, E. cloacae (27), read-out: MIC90", "value": 1, "unit": "µg/mL"}, {"measurement": "MIC", "setting": "[3]; Enterobacter cloacae, E. cloacae (27), read-out: Modal MIC (most frequent MIC)", "value": 1, "unit": "µg/mL"}, {"measurement": "MIC50", "setting": "[4]", "value": 4, "unit": "µg/mL"}, {"measurement": "MIC90", "setting": "[4]", "value": "> 8", "unit": "µg/mL"}, {"measurement": "MIC", "setting": "[4]; [19]", "value": "> 8", "unit": "µg/mL"}, {"measurement": "MIC Range", "setting": "[5]", "value": "0.125 to 16", "unit": "µg/mL"}, {"measurement": "MIC50", "setting": "[5]; Staphylococcus aureus, read-out: MIC50", "value": 4, "unit": "µg/mL"}, {"measurement": "MIC90", "setting": "[5]; Staphylococcus aureus, read-out: MIC90", "value": 8, "unit": "µg/mL"}, {"measurement": "MIC", "setting": "[5]; Staphylococcus aureus, read-out: Modal MIC (most frequent MIC)", "value": 4, "unit": "µg/mL"}, {"measurement": "MIC50", "setting": "[6]; read-out: MIC50", "value": 16, "unit": "µg/mL"}, {"measurement": "MIC90", "setting": "[6]; read-out: MIC90", "value": "> 32", "unit": "µg/mL"}, {"measurement": "MIC", "setting": "[6]; [19]", "value": 8, "unit": "µg/mL"}, {"measurement": "MIC90", "setting": "[7]; MRSA (37)", "value": 8, "unit": "µg/mL"}, {"measurement": "MIC Range", "setting": "[7]; MRSA (37)", "value": "0.125 to 16", "unit": "µg/mL"}, {"measurement": "MIC50", "setting": "[7]; Staphylococcus aureus, MRSA", "value": 4, "unit": "µg/mL"}, {"measurement": "MIC90", "setting": "[7]; Staphylococcus aureus, MRSA", "value": 8, "unit": "µg/mL"}, {"measurement": "MIC", "setting": "[7]; Staphylococcus aureus, MRSA, read-out: Modal MIC (most frequent MIC)", "value": 4, "unit": "µg/mL"}, {"measurement": "MIC50", "setting": "[8]; read-out: MIC50", "value": 8, "unit": "µg/mL"}, {"measurement": "MIC90", "setting": "[8]; read-out: MIC90", "value": 32, "unit": "µg/mL"}, {"measurement": "MIC", "setting": "[8]; [19]", "value": 8, "unit": "µg/mL"}, {"measurement": "concentration by which all isolates were inhibited", "setting": "[9]; 34 E. faecium isolates (including 31 vancomycin-resistant)", "value": 32, "unit": "µg/mL"}, {"measurement": "MIC Range", "setting": "[9]; E. faecium (34)", "value": "4 to 32", "unit": "µg/mL"}, {"measurement": "MIC50", "setting": "[9]; Enterococcus faecium, E. faecium (34), read-out: MIC50", "value": 16, "unit": "µg/mL"}, {"measurement": "MIC90", "setting": "[9]; Enterococcus faecium, E. faecium (34), read-out: MIC90", "value": 16, "unit": "µg/mL"}, {"measurement": "MIC", "setting": "[9]; Enterococcus faecium, E. faecium (34), read-out: Modal MIC (most frequent MIC)", "value": 16, "unit": "µg/mL"}, {"measurement": "concentration to which all the isolates were sensitive", "setting": "[10]", "value": "≤ 4", "unit": "µg/mL"}, {"measurement": "MIC50", "setting": "[11]; read-out: MIC50", "value": 2, "unit": "µg/mL"}, {"measurement": "MIC90", "setting": "[11]; read-out: MIC90", "value": "> 8", "unit": "µg/mL"}, {"measurement": "MIC", "setting": "[11]; [19]", "value": 2, "unit": "µg/mL"}, {"measurement": "MIC50", "setting": "[12]", "value": 2, "unit": "µg/mL"}, {"measurement": "MIC90", "setting": "[12]", "value": "> 8", "unit": "µg/mL"}, {"measurement": "MIC", "setting": "[12]; [19]", "value": 2, "unit": "µg/mL"}, {"measurement": "MIC50", "setting": "[13]", "value": 1, "unit": "µg/mL"}, {"measurement": "MIC90", "setting": "[13]", "value": 4, "unit": "µg/mL"}, {"measurement": "MIC", "setting": "[13]; [19]", "value": 2, "unit": "µg/mL"}, {"measurement": "concentration to which all the isolates were sensitive", "setting": "[14]", "value": "≤ 4", "unit": "µg/mL"}, {"measurement": "concentration to which all the isolates were sensitive", "setting": "[15]", "value": "≤ 4", "unit": "µg/mL"}, {"measurement": "concentration to which all the isolates were sensitive", "setting": "[16]", "value": "≤ 4", "unit": "µg/mL"}, {"measurement": "MIC", "setting": "[17]", "value": "> 8", "unit": "µg/mL"}, {"measurement": "MIC", "setting": "[18]", "value": "≥ 8", "unit": "µg/mL"}]}
